Measured values: US6020373A, “Chelate derivatives as protectors against tissue injury” (Eastern Virginia Medical School, priority 1997, dated 2000)
“Also recorded” adds a separate entry of the source.

Columns and labels:
in vivo = conditions: mouse, in vivo, ip
Method: (§1) For all biological studies, the substances were dissolved in water and brought to pH 7. […] Preliminary determination of the approximate toxicity level of the substances was by intraperitoneal (IP) injection of increasing doses into individual Swiss-Webster female mice until toxicity was evident. The maximum tolerated dose was the highest dose given without evident toxic symptoms such as coma, convulsions, or death. The LD 50 (IP) was determined by using at least three doses in 12 mice at each level, bracketing the approximate LD 50. The mice were followed for at least one week and examined for weight changes, general condition, and behavior. The LD 50 with lower and upper confidene iits was calculated from the data.

[1] = tested on: radiation damage of right hind leg; assay: Radioprotection in mice: radiation damage scores of the irradiated right hind leg; conditions: for Av score (average radiation damage score, day 15-20): 6 mice per group; for effectiveness as radioprotectant: IP, mice, limb irradiation 30-40 Gy; for Av Score (average radiation damage score, day 12-24): 30 Gy to right limb, 12 mice per group, IP mmole/kg: IDA 16.7, EDTA 8.6, MPEG 17.9, MIDA 10.3, MPEDTA 7.7, saline 1.54
Method: The effect of PEG derivatives on tissue tolerance to radiation was tested. Groups of 6 or 12 female Swiss-Webster mice were given IP solutions of the derivatives at a dose of approxfimately one-half of the LD50. Ten minutes later, pentobarbital (PB) 0.262 mmole/kg was given IP, and twenty minutes after the first injection, the right hind leg only was irradiated with 30, 35 or 40 Gy using the Philips RT-250 unit operated under the following conditions: 200 kVp, 20 mA, 0.2 mm Cu added filtration, HVL 0.57 mm Cu, dose rate of 1.834 Gy/min. Mice were irradiated in groups of 6 or 12, and their legs were arranged within a 20×24 cm aperture cone at a 50 cm target-to-skin distance such that all their legs were within a 95% isodose. The output of the X-ray unit was calibrated using a Capintec PT-06C Farmer chamber. Controls received only PB and 0.4 ml normal saline in place of the drug.
The mice were examed daily by two independent observers for 24 days, and the limbs were scored for radiation damage graded on a scale of 0 to 3.5 according to criteria previously established (Fowler, et al., Int. J. Rad. Biol., 9:241-252, 1964). Briefly, a score of 1 corresponds to definite reddening of the foot compared to normal and a score of 2 is marked moist desquamation, loss of hair and skin, and sticking together of toes.

[2] = tested on: blood urea nitrogen levels (BUN); assay: Effect on renal toxicity of doxorubicin (blood urea nitrogen); conditions: 27 days, FIG. 3; for prevention of doxorubicin-induced BUN increase: 7 mmole/kg IP one hour before 25 mg/kg doxorubicin into tail vein
[3] = in vivo; cited from earlier work
[4] = tested on: tissue injury, such as myocardial ischemia-reperfusion injury; conditions: in vivo; cited from earlier work
Mice = assay: in vivo; conditions: IP, mice; for LD50: 12 mice at each level, LL and UL confidence limits in own columns; for MTD (maximum tolerated dose): highest dose without evident toxic symptoms such as coma, convulsions, or death
Method: as §1

B16F1 malignant melanoma = assay: Effect on doxorubicin-caused tumor growth lag; format: in vivo, C57Bl/6 mice; conditions: IP 30 minutes before doxorubicin 15 mg/kg IP; FIG. 4
Method: For this assay, the B16F1 malignant melanoma which grows in isologous C57Bl/6 mice was used. […] When the tumors reached an average of 6-8 mm diameter, they were placed in closely matched groups of 12 with similar average size tumors. The groups were injected intraperitoneally with either saline or MPEDTA, followed 30 minutes later by doxorubicin 15 mg/kg IP or saline. Tumor volumes were assessed by daily caliper measreients m two orthogonal planes. Tumor length is defined as the diameter in the plane parallel to the body, while width is defined as the diameter perpendicular to the body. Diameter product (in mm^2) was used as the index of tumor growth. The tumor areas were averaged and plotted vs. time to show growth delay as a function of the various treatments. When the average area reached […], the mice were killed by cervical dislocation. The results are in FIG. 4. The solid circles indicate the groups receiving saline-saline or MPEDTA-saline, the solid squares indicate the group receiving saline-doxorubicin, and the solid triangles indicate the group receiving MPEDTA-doxorubicin.

[5] = 40 Gy, IP mmole/kg: EDTAE, DTPA ester, MPDTE 1.0, MPEDTAE 2.0, MPEDTA 8.0, saline 2.93
[6] = 35 Gy, IP mmole/kg: EDTA, DTPA, MPEDTA, MPDTP 8.0, EDTAE 1.0, MPEDTAE, MPDTE 2.0, saline 2.36

## COC(=O)CN(CCN(CC(=O)OC)CC(=O)OC)CCN(CC(=O)OC)CC(=O)OC [DTPA methyl ester]
In vivo
  MTD: 1000 µmol/kg
[1]; [5]
  Av score (average radiation damage score, day 15-20): 2.50
[1]
  effectiveness as radioprotectant: not effective

## O=C(O)CN(CCN(CC(=O)O)CC(=O)O)CCN(CC(=O)O)CC(=O)O [DTPA, diethylene triamine pentaacetic acid]
In vivo
  MTD: 8000 µmol/kg
[1]; [6]
  Av score (average radiation damage score, day 15-20): 1.34
[1]
  effectiveness as radioprotectant: slightly effective; also recorded: moderately effective

## COc1cccc2c1C(=O)c1c(O)c3c(c(O)c1C2=O)C[C@@](O)(C(=O)CO)C[C@@H]3O[C@H]1C[C@H](N)[C@H](O)[C@H](C)O1 [Doxorubicin, doxorubicin]
[2]; 25 mg/kg doxorubicin into tail vein
  BUN compared with the untreated control group: markedly increased BUN

## O=C(O)CN(CCN(CC(=O)O)CC(=O)O)CC(=O)O [EDTA, ethylene-diamine tetraacetic acid]
[2]
  prevention of doxorubicin-induced BUN increase: not
In vivo
  MTD: 8000 µmol/kg

## O=C(O)CNCC(=O)O [IDA, iminodiacetate]
In vivo
  LD50: 33100 µmol/kg
  MTD: 17000 µmol/kg
[1]
  Av Score (average radiation damage score, day 12-24): 1.19

## CC(=O)N(O)CCCCCNC(=O)CCC(=O)N(O)CCCCCNC(=O)CCC(=O)N(O)CCCCCN [deferoxamine (DEF), deferoxamine]
[3]
  excretion / circulation lifetime: rapid excretion
[4]
  effectiveness in reducing tissue injury: some effectiveness in reducing tissue injury

## Methoxypolyethlene Glycol Amide with EDTA [MPEDTA]
[2]
  prevention of doxorubicin-induced BUN increase: completely prevented
Mice
  LD50: 12.5 mmol/kg
  MTD (maximum tolerated dose): 8 mmol/kg
[1]
  Av Score (average radiation damage score, day 12-24): 0.24
  effectiveness as radioprotectant: extremely effective; also recorded: very effective in reducing or preventing damage from radiation or doxorubicin
[1]; [6]
  Av score (average radiation damage score, day 15-20): 1.50
[1]; [5]
  Av score (average radiation damage score, day 15-20): 1.67
B16F1 malignant melanoma
  effect on tumoricidal effect of / tumor growth lag produced by doxorubicin: clearly did not interfere with the tumoricidal effect of doxorubicin; also recorded: lack of effect

## Methoxypolyethyene Glycol Amide with DTPA. Calcium Sodium Salt [MPDTP]
[1]; [6]
  Av score (average radiation damage score, day 15-20): 1.21

## Methoxypolyethylene Glycol Iminodiacetate [MIDA]
Mice
  LD50: 20.6 mmol/kg
  MTD (maximum tolerated dose): 8 mmol/kg
[1]
  Av Score (average radiation damage score, day 12-24): 0.67
  effectiveness as radioprotectant: moderately effective
[1]; average radiation damage scores, Tables II and III
  ANOVA comparison of average scores between groups: little difference

## Metyl Ester of MPEDTA [MPEDTAE]
[1]; [6]
  Av score (average radiation damage score, day 15-20): 0.88
[1]; [5]
  Av score (average radiation damage score, day 15-20): 1.45
[1]
  effectiveness as radioprotectant: also effective in protection from tissue injury
